The record followed here is patent publication US20170081331A1, “Pyrazolopyrazines and their use in the treatment, amelioration or prevention of a viral disease” (F. Hoffmann-La Roche AG, priority 2015, published 2017).

Molecules are shown by their SMILES.

One experiment has as its target T1, influenza A virus (IAV) PA-Nter fragment (amino acids 1-209) (Influenza A virus, UniProt P31343).
T1 construct: PA-Nter fragment (amino acids 1-209); made in house
As to the kind of experiment: FRET endonuclease activity assay. It counts as biochemical. The settings on record: PA-Nter 0.5 μM, 1.6 μM RNA substrate; from initial reaction velocities (v0).
`CC(C)N1CCn2[nH]c(=O)c(O)c2C1=O` yielded an IC50 of 1.31 µM.
For the compound `CC(C)N1CCn2c(c(O)c(=O)n2CCc2ccccc2)C1=O`, the IC50 worked out at 7.54 µM.
In the case of `CC(C)N1CCn2c(c(O)c(=O)n2Cc2ccccc2)C1=O`, the IC50 was determined as 12.4 µM.
With `CC(C)N1CC(C)n2c(c(O)c(=O)n2Cc2ccccc2)C1=O` (stereo not shown), half-maximal inhibition (IC50) required 2.63 µM.

For another experiment, the target named is whole RNP complex of IAV strain A/PR/8/34 (Influenza A virus, UniProt P03433). As to the kind of experiment: Transcription assay (TA assay), Quantigene detection of de novo viral mRNA. It counts as biochemical, influenza A virus A/PR/8/34. The note with it: 80 pM RNPs, 2 nM capped RNA substrate, cell-free; read-out: TA IC50 (unit inferred).
`COC(=O)c1nn2c(c1O)C(=O)N(C(C)C)CC2`: the IC50 worked out at 79.6 µM.

The same experiment, now with this note: 80 pM RNPs, 2 nM capped RNA substrate, cell-free; read-out: TA assay IC50.
On to `CC(C)N1CC(c2ccccc2)n2c(c(O)c(=O)n2Cc2ccccc2)C1=O` (stereo not shown), for which the IC50 came to 5.85 µM.
Consider `CC(C)N1CC(Cc2ccccc2)n2nc(C(=O)O)c(O)c2C1=O` (stereo not shown), for which the IC50 came out at 13.2 µM.
In the case of `O=C(O)c1nn2c(c1O)C(=O)NCC2Cc1ccccc1` (stereo not shown), the IC50 was 35.1 µM.
With `CN1CC(Cc2ccccc2)n2nc(C(=O)O)c(O)c2C1=O` (stereo not shown), the half-maximal inhibitory concentration (IC50) was found to be 25.5 µM.
Take `O=C(O)c1nn2c(c1OCc1ccccc1)C(=O)NCC2`: the IC50 was found to be 0.532 µM.
